Data reported in PMC9571063 (Molecules, 2022).

Experiments:
Test in all cases: KINOMEscan
FLT3(D835V) = molecular target: T1, FLT3(D835V) (Homo sapiens, UniProt P36888, D835V); format: binding; conditions: read-out: Percent Control
T1 construct: purchased Eurofins DiscoverX KINOMEscan (scanMAX 468)

DCAMKL1 = molecular target: T2, DCAMKL1 (Homo sapiens, UniProt O15075); format: binding; conditions: read-out: Percent Control
T2 construct: purchased Eurofins DiscoverX KINOMEscan (scanMAX 468)

ICK = molecular target: T3, ICK (Homo sapiens, UniProt Q9UPZ9); format: binding; conditions: read-out: Percent Control
T3 construct: purchased Eurofins DiscoverX KINOMEscan (scanMAX 468)
T3 sequence (Q9UPZ9 whole entry): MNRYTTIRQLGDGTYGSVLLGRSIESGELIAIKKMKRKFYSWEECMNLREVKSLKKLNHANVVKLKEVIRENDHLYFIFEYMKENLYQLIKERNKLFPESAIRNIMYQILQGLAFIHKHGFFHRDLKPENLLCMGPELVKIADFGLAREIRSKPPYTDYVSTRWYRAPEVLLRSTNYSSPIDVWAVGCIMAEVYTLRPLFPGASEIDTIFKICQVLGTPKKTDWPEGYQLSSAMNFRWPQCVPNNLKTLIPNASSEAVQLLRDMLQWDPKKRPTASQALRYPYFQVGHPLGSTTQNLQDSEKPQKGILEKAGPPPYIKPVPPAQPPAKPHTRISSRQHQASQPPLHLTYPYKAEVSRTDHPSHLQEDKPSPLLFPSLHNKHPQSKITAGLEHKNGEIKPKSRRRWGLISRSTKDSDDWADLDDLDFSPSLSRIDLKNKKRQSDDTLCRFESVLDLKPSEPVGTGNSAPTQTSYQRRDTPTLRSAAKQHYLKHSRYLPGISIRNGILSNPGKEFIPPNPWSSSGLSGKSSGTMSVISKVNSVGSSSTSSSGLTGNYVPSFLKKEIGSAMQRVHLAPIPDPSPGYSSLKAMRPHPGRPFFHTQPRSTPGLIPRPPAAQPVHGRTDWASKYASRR

AKT1 = molecular target: T4, AKT1 (Homo sapiens, UniProt P31749); format: binding; conditions: read-out: Percent Control
T4 construct: purchased Eurofins DiscoverX KINOMEscan (scanMAX 468)

[1] = molecular target: T5, RSK1(Kin.Dom.2-C-terminal) (Homo sapiens, UniProt Q15418); format: binding; conditions: read-out: Percent Control
T5 construct: RSK1(Kin.Dom.2-C-terminal); purchased Eurofins DiscoverX KINOMEscan (scanMAX 468)

MERTK = molecular target: T6, MERTK (Homo sapiens, UniProt Q12866); format: binding; conditions: read-out: Percent Control
T6 construct: purchased Eurofins DiscoverX KINOMEscan (scanMAX 468)
T6 sequence (Q12866 21-999): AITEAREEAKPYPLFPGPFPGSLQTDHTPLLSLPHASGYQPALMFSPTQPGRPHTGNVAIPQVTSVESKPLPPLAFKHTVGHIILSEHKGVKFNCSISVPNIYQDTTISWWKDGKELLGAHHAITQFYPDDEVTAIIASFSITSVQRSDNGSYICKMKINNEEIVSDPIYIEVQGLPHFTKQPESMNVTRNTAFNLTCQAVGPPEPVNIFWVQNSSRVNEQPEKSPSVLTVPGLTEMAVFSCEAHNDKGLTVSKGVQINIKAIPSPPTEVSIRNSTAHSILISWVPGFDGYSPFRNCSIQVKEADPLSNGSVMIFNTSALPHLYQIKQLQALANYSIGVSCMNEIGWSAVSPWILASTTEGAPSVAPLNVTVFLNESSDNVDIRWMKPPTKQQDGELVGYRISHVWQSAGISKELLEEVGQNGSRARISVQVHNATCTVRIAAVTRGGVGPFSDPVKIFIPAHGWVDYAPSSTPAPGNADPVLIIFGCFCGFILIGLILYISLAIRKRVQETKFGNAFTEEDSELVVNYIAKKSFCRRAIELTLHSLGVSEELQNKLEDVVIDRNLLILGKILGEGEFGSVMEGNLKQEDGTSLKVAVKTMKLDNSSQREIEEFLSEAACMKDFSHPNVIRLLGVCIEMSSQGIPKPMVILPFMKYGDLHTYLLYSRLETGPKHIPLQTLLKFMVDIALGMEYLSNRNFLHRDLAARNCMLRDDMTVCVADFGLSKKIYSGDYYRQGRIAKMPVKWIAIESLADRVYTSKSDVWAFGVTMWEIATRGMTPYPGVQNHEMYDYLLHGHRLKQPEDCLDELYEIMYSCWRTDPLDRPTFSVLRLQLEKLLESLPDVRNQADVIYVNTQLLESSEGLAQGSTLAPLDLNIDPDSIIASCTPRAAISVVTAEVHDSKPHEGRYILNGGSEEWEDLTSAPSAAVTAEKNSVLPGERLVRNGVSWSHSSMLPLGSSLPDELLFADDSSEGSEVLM

CDC2L1 = molecular target: T7, CDC2L1 (Homo sapiens, UniProt P21127); format: binding; conditions: read-out: Percent Control
T7 construct: purchased Eurofins DiscoverX KINOMEscan (scanMAX 468)

EGFR(L861Q) = molecular target: T8, EGFR(L861Q) (Homo sapiens, UniProt P00533, L861Q); format: binding; conditions: read-out: Percent Control
T8 construct: purchased Eurofins DiscoverX KINOMEscan (scanMAX 468)

[2] = molecular target: T9, RPS6KA5(Kin.Dom.1-N-terminal) (Homo sapiens, UniProt O75582); format: binding; conditions: read-out: Percent Control
T9 construct: RPS6KA5(Kin.Dom.1-N-terminal); purchased Eurofins DiscoverX KINOMEscan (scanMAX 468)

BRSK1 = molecular target: T10, BRSK1 (Homo sapiens, UniProt Q8TDC3); format: binding; conditions: read-out: Percent Control
T10 construct: purchased Eurofins DiscoverX KINOMEscan (scanMAX 468)
T10 sequence (Q8TDC3 whole entry): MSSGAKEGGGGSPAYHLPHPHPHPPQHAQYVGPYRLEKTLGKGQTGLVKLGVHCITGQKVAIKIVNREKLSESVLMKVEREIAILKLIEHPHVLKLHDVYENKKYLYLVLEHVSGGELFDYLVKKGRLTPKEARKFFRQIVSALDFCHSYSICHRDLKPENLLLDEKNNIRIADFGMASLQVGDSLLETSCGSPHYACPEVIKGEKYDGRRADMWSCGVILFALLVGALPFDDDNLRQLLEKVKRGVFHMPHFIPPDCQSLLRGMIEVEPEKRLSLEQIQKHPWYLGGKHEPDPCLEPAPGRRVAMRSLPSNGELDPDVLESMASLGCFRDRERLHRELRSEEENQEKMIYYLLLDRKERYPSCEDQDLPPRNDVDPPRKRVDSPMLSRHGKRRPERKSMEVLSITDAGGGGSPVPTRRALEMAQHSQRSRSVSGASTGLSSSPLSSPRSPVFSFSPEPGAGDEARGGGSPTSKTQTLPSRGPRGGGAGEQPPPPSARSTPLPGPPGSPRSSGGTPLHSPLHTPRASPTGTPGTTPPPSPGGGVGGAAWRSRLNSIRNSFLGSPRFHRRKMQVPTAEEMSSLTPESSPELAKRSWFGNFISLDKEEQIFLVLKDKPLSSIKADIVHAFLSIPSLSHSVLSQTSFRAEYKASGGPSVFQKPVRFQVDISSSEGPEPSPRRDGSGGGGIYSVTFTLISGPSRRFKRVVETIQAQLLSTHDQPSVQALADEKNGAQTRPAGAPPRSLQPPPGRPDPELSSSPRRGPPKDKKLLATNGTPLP

JNK1 = molecular target: T11, JNK1 (Homo sapiens, UniProt P45983); format: binding; conditions: read-out: Percent Control
T11 construct: purchased Eurofins DiscoverX KINOMEscan (scanMAX 468)
T11 sequence (P45983 whole entry): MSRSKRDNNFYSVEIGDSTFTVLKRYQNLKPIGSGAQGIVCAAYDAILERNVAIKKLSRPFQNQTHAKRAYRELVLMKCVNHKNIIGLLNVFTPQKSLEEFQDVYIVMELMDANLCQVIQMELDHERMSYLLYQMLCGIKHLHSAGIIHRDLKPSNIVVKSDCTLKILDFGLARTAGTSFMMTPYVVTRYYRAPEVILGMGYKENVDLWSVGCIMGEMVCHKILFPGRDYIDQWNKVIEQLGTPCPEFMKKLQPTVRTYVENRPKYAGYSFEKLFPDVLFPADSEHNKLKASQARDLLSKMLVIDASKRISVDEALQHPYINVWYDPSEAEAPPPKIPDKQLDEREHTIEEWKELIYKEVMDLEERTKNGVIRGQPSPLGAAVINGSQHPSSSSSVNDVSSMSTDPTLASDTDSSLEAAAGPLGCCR

FLT3(ITD) = format: binding, human; conditions: 1 μM
PAK3 = molecular target: T12, PAK3 (Homo sapiens, UniProt O75914); format: binding; conditions: read-out: Percent Control
T12 construct: purchased Eurofins DiscoverX KINOMEscan (scanMAX 468)

[3] = molecular target: T13, JAK1(JH1domain-catalytic) (Homo sapiens, UniProt P23458); format: binding; conditions: read-out: Percent Control
T13 construct: JAK1(JH1domain-catalytic); purchased Eurofins DiscoverX KINOMEscan (scanMAX 468)

PRKD3 = molecular target: T14, PRKD3 (Homo sapiens, UniProt O94806); format: binding; conditions: read-out: Percent Control
T14 construct: purchased Eurofins DiscoverX KINOMEscan (scanMAX 468)

TNIK = molecular target: T15, TNIK (Homo sapiens, UniProt Q9UKE5); format: binding; conditions: read-out: Percent Control
T15 construct: purchased Eurofins DiscoverX KINOMEscan (scanMAX 468)

ERK8 = molecular target: T16, ERK8 (Homo sapiens, UniProt Q8TD08); format: binding; conditions: read-out: Percent Control
T16 construct: purchased Eurofins DiscoverX KINOMEscan (scanMAX 468)
T16 sequence (Q8TD08 whole entry): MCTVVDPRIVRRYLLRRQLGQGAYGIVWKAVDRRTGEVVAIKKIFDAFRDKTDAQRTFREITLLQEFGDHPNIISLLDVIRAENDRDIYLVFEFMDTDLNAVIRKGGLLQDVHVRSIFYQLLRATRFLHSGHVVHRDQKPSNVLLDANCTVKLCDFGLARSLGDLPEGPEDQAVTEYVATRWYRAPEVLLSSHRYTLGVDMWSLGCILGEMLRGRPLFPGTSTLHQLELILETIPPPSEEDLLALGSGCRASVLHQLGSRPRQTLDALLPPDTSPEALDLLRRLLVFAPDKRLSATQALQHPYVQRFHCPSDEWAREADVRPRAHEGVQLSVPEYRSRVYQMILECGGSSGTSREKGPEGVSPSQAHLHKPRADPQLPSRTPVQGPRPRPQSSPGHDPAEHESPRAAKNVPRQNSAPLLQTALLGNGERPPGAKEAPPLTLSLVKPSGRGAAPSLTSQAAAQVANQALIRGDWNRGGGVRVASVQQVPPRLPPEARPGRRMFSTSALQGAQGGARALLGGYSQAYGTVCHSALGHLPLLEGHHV

LRRK2 = molecular target: T17, LRRK2 (Homo sapiens, UniProt Q5S007); format: binding; conditions: read-out: Percent Control
T17 construct: purchased Eurofins DiscoverX KINOMEscan (scanMAX 468)

MRCKA = molecular target: T18, MRCKA (Homo sapiens, UniProt Q5VT25); format: binding; conditions: read-out: Percent Control
T18 construct: purchased Eurofins DiscoverX KINOMEscan (scanMAX 468)

EPHB4 = molecular target: T19, EPHB4 (Homo sapiens, UniProt P54760); format: binding; conditions: read-out: Percent Control
T19 construct: purchased Eurofins DiscoverX KINOMEscan (scanMAX 468)

HPK1 = molecular target: T20, HPK1 (Homo sapiens, UniProt Q92918); format: binding; conditions: read-out: Percent Control
T20 construct: purchased Eurofins DiscoverX KINOMEscan (scanMAX 468)

MLK1 = molecular target: T21, MLK1 (Homo sapiens, UniProt P80192); format: binding; conditions: read-out: Percent Control
T21 construct: purchased Eurofins DiscoverX KINOMEscan (scanMAX 468)

MINK = molecular target: T22, MINK (Homo sapiens, UniProt Q8N4C8); format: binding; conditions: read-out: Percent Control
T22 construct: purchased Eurofins DiscoverX KINOMEscan (scanMAX 468)

CHEK1 = molecular target: T23, CHEK1 (Homo sapiens, UniProt O14757); format: binding; conditions: read-out: Percent Control
T23 construct: purchased Eurofins DiscoverX KINOMEscan (scanMAX 468)

PIK3CD = molecular target: T24, PIK3CD (Homo sapiens, UniProt O00329); format: binding; conditions: read-out: Percent Control
T24 construct: purchased Eurofins DiscoverX KINOMEscan (scanMAX 468)

KIT(V559D) = molecular target: T25, KIT(V559D) (Homo sapiens, UniProt P10721, V559D); format: binding; conditions: read-out: Percent Control
T25 construct: purchased Eurofins DiscoverX KINOMEscan (scanMAX 468)

PIP5K2B = molecular target: T26, PIP5K2B (Homo sapiens, UniProt P78356); format: binding; conditions: read-out: Percent Control
T26 construct: purchased Eurofins DiscoverX KINOMEscan (scanMAX 468)
T26 sequence (P78356 whole entry): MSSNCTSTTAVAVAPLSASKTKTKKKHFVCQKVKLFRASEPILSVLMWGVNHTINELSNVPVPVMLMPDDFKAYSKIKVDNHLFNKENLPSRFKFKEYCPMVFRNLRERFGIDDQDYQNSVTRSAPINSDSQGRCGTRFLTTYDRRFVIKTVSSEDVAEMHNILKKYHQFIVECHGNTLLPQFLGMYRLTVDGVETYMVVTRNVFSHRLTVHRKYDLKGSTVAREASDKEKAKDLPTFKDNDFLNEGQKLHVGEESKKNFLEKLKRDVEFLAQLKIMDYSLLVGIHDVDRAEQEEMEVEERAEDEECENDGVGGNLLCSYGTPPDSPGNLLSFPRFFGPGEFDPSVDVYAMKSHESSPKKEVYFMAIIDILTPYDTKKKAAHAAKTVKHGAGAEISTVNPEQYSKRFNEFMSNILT

CDK4-cyclinD3 = molecular target: T27, CDK4-cyclinD3 (Homo sapiens, UniProt P11802); format: binding; conditions: read-out: Percent Control
T27 construct: purchased Eurofins DiscoverX KINOMEscan (scanMAX 468)

[4] = molecular target: T28, RSK4(Kin.Dom.2-C-terminal) (Homo sapiens, UniProt Q9UK32); format: binding; conditions: read-out: Percent Control
T28 construct: RSK4(Kin.Dom.2-C-terminal); purchased Eurofins DiscoverX KINOMEscan (scanMAX 468)

[5] = molecular target: T29, JAK2(JH1domain-catalytic) (Homo sapiens, UniProt O60674); format: binding; conditions: read-out: Percent Control
T29 construct: JAK2(JH1domain-catalytic); purchased Eurofins DiscoverX KINOMEscan (scanMAX 468)

PAK6 = molecular target: T30, PAK6 (Homo sapiens, UniProt Q9NQU5); format: binding; conditions: read-out: Percent Control
T30 construct: purchased Eurofins DiscoverX KINOMEscan (scanMAX 468)
T30 sequence (Q9NQU5 whole entry): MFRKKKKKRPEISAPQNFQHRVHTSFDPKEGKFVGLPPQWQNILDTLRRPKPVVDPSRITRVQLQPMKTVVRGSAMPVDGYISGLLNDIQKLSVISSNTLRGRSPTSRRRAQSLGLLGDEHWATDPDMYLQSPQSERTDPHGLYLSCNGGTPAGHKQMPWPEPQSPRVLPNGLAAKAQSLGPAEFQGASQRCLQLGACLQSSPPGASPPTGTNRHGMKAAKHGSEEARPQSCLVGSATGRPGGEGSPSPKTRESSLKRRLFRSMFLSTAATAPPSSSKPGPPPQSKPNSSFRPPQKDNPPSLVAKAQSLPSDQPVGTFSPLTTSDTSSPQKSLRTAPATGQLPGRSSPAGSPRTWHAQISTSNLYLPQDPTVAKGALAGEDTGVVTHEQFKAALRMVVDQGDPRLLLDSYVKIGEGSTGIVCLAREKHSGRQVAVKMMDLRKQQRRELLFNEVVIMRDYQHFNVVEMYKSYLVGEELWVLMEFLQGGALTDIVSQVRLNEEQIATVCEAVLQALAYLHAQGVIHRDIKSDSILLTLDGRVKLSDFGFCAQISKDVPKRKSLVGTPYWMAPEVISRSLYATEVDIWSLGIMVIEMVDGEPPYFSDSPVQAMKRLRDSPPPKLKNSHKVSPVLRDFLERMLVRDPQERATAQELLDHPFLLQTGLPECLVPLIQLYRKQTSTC

AXL = molecular target: T31, AXL (Homo sapiens, UniProt P30530); format: binding; conditions: read-out: Percent Control
T31 construct: purchased Eurofins DiscoverX KINOMEscan (scanMAX 468)

MST2 = molecular target: T32, MST2 (Homo sapiens, UniProt Q13188); format: binding; conditions: read-out: Percent Control
T32 construct: purchased Eurofins DiscoverX KINOMEscan (scanMAX 468)

FLT3(D835Y) = molecular target: T33, FLT3(D835Y) (Homo sapiens, UniProt P36888, D835Y); format: binding; conditions: read-out: Percent Control
T33 construct: purchased Eurofins DiscoverX KINOMEscan (scanMAX 468)

SGK = molecular target: T34, SGK (Homo sapiens, UniProt O00141); format: binding; conditions: read-out: Percent Control
T34 construct: purchased Eurofins DiscoverX KINOMEscan (scanMAX 468)

SGK3 = molecular target: T35, SGK3 (Homo sapiens, UniProt Q96BR1); format: binding; conditions: read-out: Percent Control
T35 construct: purchased Eurofins DiscoverX KINOMEscan (scanMAX 468)

JNK3 = molecular target: T36, JNK3 (Homo sapiens, UniProt P53779); format: binding; conditions: read-out: Percent Control
T36 construct: purchased Eurofins DiscoverX KINOMEscan (scanMAX 468)

RIOK1 = molecular target: T37, RIOK1 (Homo sapiens, UniProt Q9BRS2); format: binding; conditions: read-out: Percent Control
T37 construct: purchased Eurofins DiscoverX KINOMEscan (scanMAX 468)
T37 sequence (Q9BRS2 whole entry): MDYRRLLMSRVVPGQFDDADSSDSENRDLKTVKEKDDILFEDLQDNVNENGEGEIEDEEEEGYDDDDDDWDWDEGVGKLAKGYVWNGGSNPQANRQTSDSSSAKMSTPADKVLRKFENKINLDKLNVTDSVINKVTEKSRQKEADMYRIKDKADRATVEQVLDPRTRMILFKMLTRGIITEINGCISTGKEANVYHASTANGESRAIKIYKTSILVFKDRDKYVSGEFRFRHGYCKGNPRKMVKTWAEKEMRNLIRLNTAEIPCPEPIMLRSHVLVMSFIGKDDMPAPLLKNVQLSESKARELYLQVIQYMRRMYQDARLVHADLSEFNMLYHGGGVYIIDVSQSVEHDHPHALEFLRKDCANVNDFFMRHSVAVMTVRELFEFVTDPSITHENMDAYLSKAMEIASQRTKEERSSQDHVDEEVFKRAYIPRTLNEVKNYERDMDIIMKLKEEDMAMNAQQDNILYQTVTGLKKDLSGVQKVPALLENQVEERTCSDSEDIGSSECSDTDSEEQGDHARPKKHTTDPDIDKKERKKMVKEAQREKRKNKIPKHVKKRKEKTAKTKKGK

RET(V804L) = molecular target: T38, RET(V804L) (Homo sapiens, UniProt P07949, V804L); format: binding; conditions: read-out: Percent Control
T38 construct: purchased Eurofins DiscoverX KINOMEscan (scanMAX 468)

TTK = molecular target: T39, TTK (Homo sapiens, UniProt P33981); format: binding; conditions: read-out: Percent Control
T39 construct: purchased Eurofins DiscoverX KINOMEscan (scanMAX 468)

PKAC-beta = molecular target: T40, PKAC-beta (Homo sapiens, UniProt P22694); format: binding; conditions: read-out: Percent Control
T40 construct: purchased Eurofins DiscoverX KINOMEscan (scanMAX 468)

SMILES: Cc1ccc(-n2cc(COc3cccc4cnc(Nc5cccc(Cl)c5)nc34)nn2)c([N+](=O)[O-])c1 [DB18]
- remaining binding at 1 µM (FLT3(D835V)): 67%
- remaining binding at 1 µM (DCAMKL1): 88%
- remaining binding at 1 µM (ICK): 81%
- remaining binding at 1 µM (AKT1): 87%
- remaining binding at 1 µM [1]: 100%
- remaining binding at 1 µM (MERTK): 100%
- remaining binding at 1 µM (CDC2L1): 100%
- remaining binding at 1 µM (EGFR(L861Q)): 99%
- remaining binding at 1 µM [2]: 100%
- remaining binding at 1 µM (BRSK1): 100%
- remaining binding at 1 µM (JNK1): 93%
- Percent Control (FLT3(ITD)): 62 % Ctrl
- remaining binding at 1 µM (PAK3): 100%
- remaining binding at 1 µM [3]: 100%
- remaining binding at 1 µM (PRKD3): 100%
- remaining binding at 1 µM (TNIK): 100%
- remaining binding at 1 µM (ERK8): 95%
- remaining binding at 1 µM (LRRK2): 100%
- remaining binding at 1 µM (MRCKA): 100%
- remaining binding at 1 µM (EPHB4): 100%
- remaining binding at 1 µM (HPK1): 100%
- remaining binding at 1 µM (MLK1): 100%
- remaining binding at 1 µM (MINK): 95%
- remaining binding at 1 µM (CHEK1): 100%
- remaining binding at 1 µM (PIK3CD): 100%
- remaining binding at 1 µM (KIT(V559D)): 100%
- remaining binding at 1 µM (PIP5K2B): 100%
- remaining binding at 1 µM (CDK4-cyclinD3): 100%
- remaining binding at 1 µM [4]: 100%
- remaining binding at 1 µM [5]: 100%
- remaining binding at 1 µM (PAK6): 100%
- remaining binding at 1 µM (AXL): 87%
- remaining binding at 1 µM (MST2): 100%
- remaining binding at 1 µM (FLT3(D835Y)): 29%
- remaining binding at 1 µM (SGK): 100%
- remaining binding at 1 µM (SGK3): 100%
- remaining binding at 1 µM (JNK3): 95%
- remaining binding at 1 µM (RIOK1): 100%
- remaining binding at 1 µM (RET(V804L)): 100%
- remaining binding at 1 µM (TTK): 86%
- remaining binding at 1 µM (PKAC-beta): 100%
